Data published in ChEMBL document CHEMBL1201862, “PubChem BioAssay data set” (2004).
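A five-concentration, 48-hour dose response in 96-well plates underlies each endpoint, interpolated linearly between surrounding concentrations. The concentration for 50% growth inhibition is given as GI50.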 Activity calls are given as the source filed them. Cut-off read from the data, not from the text of the source: active = GI50 up to about 1.1 µM and inactive = higher.

How the values were obtained:
Test in all cases: growth of human tumour cells (NCI), 48 h
DMS-114 = system: DMS-114
DLD-1 = system: DLD-1
HOP-18 = system: HOP-18
M19-MEL = system: M19-MEL
KM-20L2 = system: KM-20L2
DMS-273 = system: DMS-273
LXFL 529 = system: LXFL 529
XF498 = system: XF498
RXF 631 = system: RXF 631

Measured: GI50

CN(C)c1ccc(/C=C/c2cc[n+](C)c3ccccc23)cc1
inactive: DMS-114 2.3 µM | DLD-1 2.68 µM | HOP-18 3.47 µM | M19-MEL 1.44 µM | KM-20L2 3.04 µM | DMS-273 2.39 µM | LXFL 529 1.23 µM

COC(=O)c1cc(C(=O)OC)c(CC(=O)C(=O)NC2C3CC4CC(C3)CC2C4)nc1CC(=O)C(=O)NC1C2CC3CC(C2)CC1C3 (centres undefined)
inactive: DMS-114 > 100 µM | DLD-1 > 100 µM | HOP-18 > 100 µM | M19-MEL > 100 µM | KM-20L2 > 100 µM | DMS-273 > 100 µM | LXFL 529 > 100 µM

O=C1c2ccccc2N2OC3(N4CCOCC4)CCCC3C12c1ccccc1 (centres undefined)
inactive: DMS-114 > 100 µM | DLD-1 > 100 µM | HOP-18 > 100 µM | M19-MEL > 100 µM | KM-20L2 > 100 µM | XF498 > 100 µM | DMS-273 > 100 µM | LXFL 529 > 100 µM

Clc1cccc(C2SCc3nc4ccccc4n32)c1 (centres undefined)
inactive: DLD-1 15.8 µM | HOP-18 18.5 µM | M19-MEL 19.4 µM | LXFL 529 19.9 µM

COC1(OC)CC2CCCCC2=C(C)N1S(=O)(=O)c1ccccc1 (centres undefined)
inactive: DLD-1 > 100 µM | HOP-18 > 100 µM | M19-MEL > 100 µM | KM-20L2 > 100 µM | XF498 > 100 µM | RXF 631 > 100 µM | DMS-273 > 100 µM | LXFL 529 > 100 µM

[N-]=[N+]=Nc1nnc(CCCCc2nnc(N=[N+]=[N-])o2)o1
inactive: DMS-114 > 100 µM | DLD-1 > 100 µM | HOP-18 > 100 µM | M19-MEL > 100 µM | KM-20L2 > 100 µM | XF498 > 100 µM | RXF 631 25.4 µM | LXFL 529 > 100 µM

COC(=O)/C=C(C)/C=C/C1OC(C)OCC1O (centres undefined)
inactive: DMS-114 > 100 µM | DLD-1 > 100 µM | M19-MEL > 100 µM | KM-20L2 > 100 µM | DMS-273 > 100 µM | LXFL 529 > 100 µM

COC(=O)C(=O)C(C(=O)C(=O)Nc1cc([N+](=O)[O-])ccc1[N+](=O)[O-])c1nc2ccc(C(=O)c3ccccc3)cc2nc1O (centres undefined)
inactive: DMS-114 23.2 µM | DLD-1 52.2 µM | HOP-18 8.02 µM | M19-MEL 28.4 µM | XF498 3.36 µM | RXF 631 49.3 µM | DMS-273 22.4 µM | LXFL 529 23.4 µM

Nc1nc2c(ncn2Cc2ccccc2CCO)c(=O)[nH]1
inactive: DMS-114 > 100 µM | M19-MEL > 100 µM | KM-20L2 > 100 µM | XF498 > 100 µM | RXF 631 > 100 µM | DMS-273 > 100 µM | LXFL 529 > 100 µM

N#Cc1cc([N+](=O)[O-])ccc1NC(=O)C(F)(F)F
inactive: DMS-114 > 40.8 µM | DLD-1 > 58.9 µM | HOP-18 > 85.9 µM | M19-MEL > 100 µM | KM-20L2 > 74.5 µM | XF498 > 100 µM | DMS-273 > 100 µM | LXFL 529 > 100 µM

CCN(CC)c1ccc(/N=N/c2ccc(-c3nc4cccn(C)c-4n3)cc2)cc1
inactive: DMS-114 3.61 µM | DLD-1 4.83 µM | HOP-18 40.1 µM | M19-MEL 5.38 µM | KM-20L2 5.32 µM | XF498 14.1 µM | RXF 631 3.41 µM | DMS-273 3.18 µM | LXFL 529 3.95 µM

Cc1ccc(SC(C)/C=C/NNC2=NN=C(c3ccccc3)C(c3ccccc3)N2)cc1 (centres undefined)
inactive: DMS-114 28.8 µM | DLD-1 27.4 µM | HOP-18 24.1 µM | M19-MEL 36.6 µM | KM-20L2 14 µM | DMS-273 32.5 µM | LXFL 529 25.8 µM

COC(=O)/C(=N/NC(C)(C)C)C(C(=O)C=C(C)C)C(=O)C(=O)Nc1ccc(Cl)cc1C (centres undefined)
inactive: DMS-114 > 100 µM | M19-MEL > 100 µM | KM-20L2 > 100 µM | XF498 > 100 µM | LXFL 529 > 100 µM

COC(=O)C(=O)C(C(C)=O)C(=O)NCc1ccc(OC)c(OC)c1 (centres undefined)
inactive: DMS-114 > 100 µM | DLD-1 > 100 µM | HOP-18 > 100 µM | M19-MEL > 100 µM | KM-20L2 > 100 µM | XF498 > 100 µM | RXF 631 > 100 µM | DMS-273 > 100 µM | LXFL 529 > 100 µM

CC1(C)OC2C(=O)OC(COCc3ccccc3)C2O1 (centres undefined)
inactive: DLD-1 > 100 µM | HOP-18 > 100 µM | M19-MEL > 100 µM | KM-20L2 > 100 µM | RXF 631 > 100 µM | DMS-273 > 100 µM | LXFL 529 > 100 µM

CN/N=C(\C(=O)Nc1ccc(C(F)(F)F)cc1[N+](=O)[O-])C(c1cnc2ccc([N+](=O)[O-])cc2n1)[N+](=O)[O-] (centres undefined)
inactive: DMS-114 10.4 µM | DLD-1 > 100 µM | M19-MEL 10.9 µM | LXFL 529 21.8 µM

COc1ccc(C2Oc3c(c(O)cc4c3[C@H](c3ccc(O)cc3O)[C@H](O)C(c3ccc(O)c(O)c3)O4)C[C@@H]2O)cc1O (some centres undefined)
inactive: DMS-114 > 100 µM | DLD-1 > 100 µM | HOP-18 > 100 µM | M19-MEL > 100 µM | KM-20L2 > 100 µM | DMS-273 > 100 µM | LXFL 529 > 100 µM
